Measurements: patent US8569327B2, “Phenanthroindolizidine derivative and NFκB inhibitor containing same as active ingredient” (Kabushiki Kaisha Yakult Honsha, priority 2008, dated 2013)

Experiments:
[1] = system: human non-small cell lung cancer A549 cells; experiment: Inhibitory action on the proliferation of A549 cells; type: cell-based; details: 96 hours, TetraColor ONE
How it was run: (§1)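 Cells seeded overnight (SW480 2000/well in 10% FBS/RPMI1640; A549, HT-29 1000/well in 10% FBS DMEM or DMEM F12 HAM), then compound-treated at 37 °C, 5% CO2 for 48 h (SW480) or 96 h (A549, HT-29). Viable cells counted by TetraColor ONE; IC50 for 50% proliferation inhibition.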

SV40 promoter = SV40 promoter activity, luciferase assay in SW480/SV40-Luc cells; type: cell-based, human; details: SW480/SV40-Luc cells, luciferase
How it was run: (§2)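 Stable SW480 colon cancer lines carried luciferase driven by a 5× NFκB response element or by the SV40 promoter. Compound was added 1 h before 50 ng/mL TNFα, followed by 4 h culture at 37 °C; luminescence was read and IC50 taken as 50% inhibition of induced luciferase expression.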

[2] = system: mice transplanted with mouse fibrosarcoma Meth A cells; experiment: Animal toxicity test; type: in vivo; details: intravenous days 1, 5, 9, observed three weeks
Description: Also, the toxicity of known phenanthroindolizidine alkaloid compounds, namely (12aS,13S)-6,7-dimethoxy-9,10,11,12,12a,13-hexahydro-9a-aza-cyclopenta[b]triphenylene-3,13-diol (known compound 1; refer to WO01/023384) and (12aS,13S)-3,6,7-trimethoxy-9,10,11,12,12a,13-hexahydro-9a-aza-cyclopenta[b]triphenylene-13-ol (known compound 2; refer to Planta Med., 2002, 68: 186-188), was simultaneously studied. To a control group, a physiological saline solution, a solvent, was administered. As a result, as shown in the following Tables 35 and 36, all the mice survived in a group administered with the compound of the present invention.

[3] = system: human colon cancer HT-29 cells; experiment: Inhibitory action on the proliferation of HT-29 cells; type: cell-based; details: 96 hours, TetraColor ONE
How it was run: as §1

NFκB = experiment: Inhibitory action on the NFκB activity, luciferase assay in SW480/NRE-Luc cells; type: cell-based, human; details: SW480/NRE-Luc cells, compound 1 h then 50 ng/mL TNFα 4 h, luciferase
How it was run: as §2

[4] = system: human colon cancer SW480 cells; experiment: Inhibitory action on the proliferation of SW480 cells; type: cell-based; details: 48 hours, TetraColor ONE
How it was run: as §1

Structure (SMILES) | A549 proliferation inhibitory action IC50 [1] [ng/mL] | SV40 promoter inhibitory activity IC50 (SV40 promoter) [ng/mL] | Mortality rate ([2]; total dose 25 mg/kg) | Mortality rate ([2]; total dose 50 mg/kg) | HT-29 proliferation inhibitory action IC50 [3] [ng/mL] | NFκB inhibitory activity IC50 (NFκB) [ng/mL] | SW480 proliferation inhibitory action IC50 [4] [ng/mL]
COc1cc2c3c(c4ccc(OC(C)=O)cc4c2cc1OC)C[C@@H]1CCCN1C3.Cl [Compound 34, acetic acid(S)-6,7-dimethoxy-9,10,11,12,12a,13-hexahydro-9a-aza-cyclopenta[b]triphenylene-3-yl ester hydrochloride] | 0.18 | >100 | 0/5 | 0/5 | 0.52 | 0.026 | 0.042
COC(=O)CCC(=O)Oc1ccc2c3c(c4cc(OC)c(OC)cc4c2c1)CN1CCC[C@H]1C3.Cl [Compound 36, succinic acid(S)-6,7-dimethoxy-9,10,11,12,12a,13-hexahydro-9a-aza-cyclopenta[b]triphenylene-3-yl ester methyl ester hydrochloride] | 0.82 | >100 | 0/5 | 0/5 | 2.3 | 0.64 | 0.96
COC(=O)Oc1ccc2c3c(c4cc(OC)c(OC)cc4c2c1)CN1CCC[C@H]1C3.Cl [Compound 37, carbonic acid(S)-6,7-dimethoxy-9,10,11,12,12a,13-hexahydro-9a-aza-cyclopenta[b]triphenylene-3-yl ester methyl ester hydrochloride] | 0.65 | >100 | 0/5 | 0/5 | 1.6 | 2.9 | 0.68
COc1cc2c3c(c4ccc(OC(=O)c5ccco5)cc4c2cc1OC)C[C@@H]1CCCN1C3.Cl [Compound 38, furan-2-carboxylic acid(S)-6,7-dimethoxy-9,10,11,12,12a,13-hexahydro-9a-aza-cyclopenta[b]triphenylene-3-yl ester hydrochloride] | 1.1 | >1000 | 0/5 | 0/5 | 3.2 | 0.50 | 0.62
COc1cc2c3c(c4ccc(OC(=O)c5cccnc5)cc4c2cc1OC)C[C@@H]1CCCN1C3.Cl [Compound 39, nicotinic acid(S)-6,7-dimethoxy-9,10,11,12,12a,13-hexahydro-9a-aza-cyclopenta[b]triphenylene-3-yl ester hydrochloride] | 0.97 | >100 | 0/5 | 0/5 | 2.6 | 2.2 | 1.3
